Source: paper PMC8545137, “Cryoelectron Microscopy Structures of AdeB Illuminate Mechanisms of Simultaneous Binding and Exporting of Substrates” (mBio, 2021)

Key:
[1] = biological target: T1, AdeB multidrug efflux pump (Acinetobacter baumannii, UniProt Q2FD70); assay: fluorescence polarization Kd with purified AdeB; cryo-EM structures in lipidic nanodiscs (7KGG, 7KGH, 7KGI); type: binding; design: full-length; homotrimer
[2] = biological target: T1, AdeB multidrug efflux pump; assay: fluorescence polarization titration with purified AdeB; type: binding; design: full-length
[3] = biological target: Acinetobacter baumannii AdeB multidrug efflux pump (Acinetobacter baumannii (AB0057)); assay: cryo-EM structure; AdeB in lipidic nanodiscs (MSP 1E3D1, E. coli total extract lipid; 20 mM Tris-HCl pH 7.5, 100 mM NaCl); 2 uM AdeB-nanodisc incubated with 20 uM ethidium bromide for 2 h; six conformational classes (three apo, three Et-bound) sorted from one sample
CusB (Escherichia coli) = CusB (Escherichia coli) (UniProt P77239); assay: ITC; conditions: cited from earlier work

Chain of CusA (P38054 whole entry): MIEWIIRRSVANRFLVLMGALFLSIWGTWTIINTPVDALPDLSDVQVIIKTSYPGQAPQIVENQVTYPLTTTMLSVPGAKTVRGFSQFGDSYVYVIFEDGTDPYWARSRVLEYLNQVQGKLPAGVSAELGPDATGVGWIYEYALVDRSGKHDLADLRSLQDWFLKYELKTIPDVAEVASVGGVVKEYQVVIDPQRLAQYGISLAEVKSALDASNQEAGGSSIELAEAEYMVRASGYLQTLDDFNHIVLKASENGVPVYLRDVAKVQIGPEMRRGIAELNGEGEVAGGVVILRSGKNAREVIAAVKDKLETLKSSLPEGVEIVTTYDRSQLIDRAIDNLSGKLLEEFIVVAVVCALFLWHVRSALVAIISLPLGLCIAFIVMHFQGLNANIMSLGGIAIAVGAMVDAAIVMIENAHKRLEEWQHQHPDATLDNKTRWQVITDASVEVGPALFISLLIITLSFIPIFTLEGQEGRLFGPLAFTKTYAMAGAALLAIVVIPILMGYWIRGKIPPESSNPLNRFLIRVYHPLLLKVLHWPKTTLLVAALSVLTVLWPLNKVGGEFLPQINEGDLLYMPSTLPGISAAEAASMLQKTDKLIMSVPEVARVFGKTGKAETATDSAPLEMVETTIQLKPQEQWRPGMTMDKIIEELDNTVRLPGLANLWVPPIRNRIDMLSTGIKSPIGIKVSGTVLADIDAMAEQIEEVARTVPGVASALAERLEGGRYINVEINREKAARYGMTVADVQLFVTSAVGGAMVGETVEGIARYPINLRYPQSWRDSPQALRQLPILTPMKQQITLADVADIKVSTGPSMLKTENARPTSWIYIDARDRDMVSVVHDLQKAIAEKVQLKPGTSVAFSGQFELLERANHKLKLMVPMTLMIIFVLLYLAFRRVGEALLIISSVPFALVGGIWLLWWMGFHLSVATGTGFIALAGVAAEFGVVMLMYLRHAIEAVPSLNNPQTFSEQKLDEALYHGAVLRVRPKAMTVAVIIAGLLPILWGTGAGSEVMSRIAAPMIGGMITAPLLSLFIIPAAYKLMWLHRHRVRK

Compound: CC[n+]1c(-c2ccccc2)c2cc(N)ccc2c2ccc(N)cc21 [Et, ethidium bromide]
- Kd [1]: 2.5 ± 0.1 µM

Compound: CC/N=c1\cc2oc3cc(NCC)c(C)cc3c(-c3ccccc3C(=O)OCC)c-2cc1C [R6G, rhodamine 6G]
- Kd [2]: 3.1 ± 0.1 µM

Compound: Acinetobacter baumannii AdeB multidrug efflux pump (natural protein)
- stoichiometry N [3]: 3

Compound: CusA (from UniProt P38054)
- Kd (CusB (Escherichia coli)): 5.1 µM
